These results are taken from patent US20250353891A1 (MEDIMMUNE LIMITED, priority 2022, published 2025).

Where two headings read alike, the source gives them in different places. Starred links: 1 amine or outer side, 2 acyl side, 3 side chain; linkers in the order of their positions; H or OH if unused. Non-standard residues stand in square brackets, D forms with d. Residues, ends and D or L forms follow the SMILES beside them. Groups on a side chain read outwards from the residue. *: point of attachment. C20 diacid = O=C(O)CCCCCCCCCCCCCCCCCCC(=O)*; C18 diacid = O=C(O)CCCCCCCCCCCCCCCCC(=O)*; Dip = N[C@H](C(=O)O)C(c1ccccc1)c1ccccc1; γGlu = O=C(O)[C@H](CCC(=O)[*:2])N[*:1]; Stearoyl = CCCCCCCCCCCCCCCCCC(=O)*; αMeF = C[C@](N)(Cc1ccccc1)C(=O)O; PEG2 = NCCOCCOCCC(=O)O; AEEA = NCCOCCOCC(=O)O; Aib = CC(C)(N)C(=O)O

For assay [1], the target named is human GLP-1 receptor (hGLP-1R) (Homo sapiens, UniProt P43220). The assay is described as follows: cAMP production (HTRF) in CHO cells expressing hGLP-1R. More on the design: expressed in transfected cells. The assay is classed as cell-based. To be noted: for EC50: cAMP in CHO hGLP-1R cells, geometric mean, read-out: hGLP-1R EC50; for % Relative Potency Ratio: % GLP-1R activity relative to GLP-1 / % GlucR activity relative to glucagon. In a few lines:
(§1)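 Read-out: HTRF cAMP (anti-cAMP cryptate donor, cAMP-d2 acceptor in conjugate/lysis buffer), converted to % Delta F and fitted by 4-parameter logistic for EC50. Cell densities were 1×10^5 cells/mL (hGLP-1R) or 2×10^5 cells/mL (hGCGR). Stimulation lasted 30 min at room temperature.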

For assay [2], the target named is human glucagon receptor (hGCGR) (Homo sapiens, UniProt P47871). The assay is described as follows: cAMP production (HTRF) in CHO cells expressing hGCGR. It counts as cell-based. Further details: expressed in transfected cells. To be noted: cAMP in CHO hGCGR cells, geometric mean, read-out: hGluc-R EC50. In a few lines:
as §1

Where [3] appears, read: Table 6, peptides modified at position 17.
The mark [4] stands for this setting: Table 7, peptides modified at position 20.

Chain of human GLP-1 receptor (hGLP-1R) (P43220 24-463): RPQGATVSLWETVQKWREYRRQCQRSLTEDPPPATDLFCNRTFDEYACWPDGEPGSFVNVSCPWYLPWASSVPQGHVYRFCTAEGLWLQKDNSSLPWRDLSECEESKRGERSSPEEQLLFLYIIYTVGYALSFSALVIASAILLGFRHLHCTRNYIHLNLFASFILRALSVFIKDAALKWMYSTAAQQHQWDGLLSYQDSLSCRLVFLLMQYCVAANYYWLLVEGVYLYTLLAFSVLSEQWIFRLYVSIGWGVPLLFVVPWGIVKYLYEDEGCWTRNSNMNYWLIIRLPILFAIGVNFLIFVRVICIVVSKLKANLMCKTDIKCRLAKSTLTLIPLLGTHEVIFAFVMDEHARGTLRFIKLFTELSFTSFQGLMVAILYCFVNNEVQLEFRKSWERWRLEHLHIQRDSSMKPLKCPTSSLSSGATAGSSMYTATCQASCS
Chain of human glucagon receptor (hGCGR) (P47871 26-477): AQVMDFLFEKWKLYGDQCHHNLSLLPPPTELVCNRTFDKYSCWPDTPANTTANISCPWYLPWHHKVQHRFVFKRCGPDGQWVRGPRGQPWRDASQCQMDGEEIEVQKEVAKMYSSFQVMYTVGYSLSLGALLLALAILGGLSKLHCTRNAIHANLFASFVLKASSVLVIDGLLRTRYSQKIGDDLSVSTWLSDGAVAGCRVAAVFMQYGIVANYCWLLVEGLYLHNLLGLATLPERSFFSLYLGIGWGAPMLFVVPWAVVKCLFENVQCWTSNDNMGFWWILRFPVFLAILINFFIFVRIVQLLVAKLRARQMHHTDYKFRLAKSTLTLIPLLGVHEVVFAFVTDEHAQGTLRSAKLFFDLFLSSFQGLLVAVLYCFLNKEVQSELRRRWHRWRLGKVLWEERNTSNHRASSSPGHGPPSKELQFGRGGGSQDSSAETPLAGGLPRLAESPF

For `CCCCCCCCCCCCCCCCCC(=O)NCCOCCOCCC(=O)N[C@@H](CCC(=O)NCCOCCOCCC(=O)N[C@@H](CCC(=O)NCCCC[C@H](NC(=O)[C@H](CO)NC(=O)[C@H](CC(=O)O)NC(=O)[C@H](CC(C)C)NC(=O)[C@@H](NC(=O)[C@H](CCCCN)NC(=O)[C@H](CO)NC(=O)[C@@H](NC(=O)[C@H](CC(=O)O)NC(=O)[C@H](CO)NC(=O)[C@@H](NC(=O)[C@](C)(Cc1ccccc1)NC(=O)[C@H](CO)NC(=O)CNC(=O)[C@H](CCC(N)=O)NC(=O)[C@H](CO)NC(=O)[C@@H](N)Cc1c[nH]cn1)[C@@H](C)O)C(C)C)C(c1ccccc1)c1ccccc1)C(=O)N[C@@H](C)C(=O)N[C@@H](C)C(=O)N[C@@H](CCC(N)=O)C(=O)N[C@@H](CC(=O)O)C(=O)N[C@@](C)(Cc1ccccc1)C(=O)N[C@H](C(=O)N[C@@H](CCC(=O)O)C(=O)NC(C)(C)C(=O)N[C@H](C(=O)N[C@H](C(=O)N[C@@H](CC(N)=O)C(=O)N[C@H](C(N)=O)[C@@H](C)O)[C@@H](C)CC)[C@@H](C)CC)C(C)C)C(=O)O)C(=O)O` [Peptide 60] (H-HSQGS[αMeF]TSDVSK[Dip]LDSK([γGlu-PEG2-γGlu-PEG2-Stearoyl])AAQD[αMeF]VE[Aib]IINT-NH2; N-terminus assumed), the EC50 in assay [1] (setting [3]) stood at 5.16 pM; in assay [2] (setting [3]) it was 21.1 pM. For the same molecule, the “% Relative Potency Ratio” value in assay [1] (Table 6) came out at 8.1.

Take `CCCCCCCCCCCCCCCCCC(=O)N[C@@H](CCC(=O)N[C@@H](CCC(=O)NCCOCCOCCC(=O)NCCOCCOCCC(=O)NCCCC[C@H](NC(=O)[C@H](CO)NC(=O)[C@H](CC(=O)O)NC(=O)[C@H](CC(C)C)NC(=O)C(C)(C)NC(=O)[C@H](CCCCN)NC(=O)[C@H](CO)NC(=O)[C@@H](NC(=O)[C@H](CC(=O)O)NC(=O)[C@H](CO)NC(=O)[C@@H](NC(=O)[C@](C)(Cc1ccccc1)NC(=O)[C@H](CO)NC(=O)CNC(=O)[C@H](CCC(N)=O)NC(=O)[C@H](CO)NC(=O)[C@@H](N)Cc1c[nH]cn1)[C@@H](C)O)C(C)C)C(=O)N[C@@H](C)C(=O)N[C@@H](C)C(=O)N[C@@H](CCC(N)=O)C(=O)N[C@@H](CC(=O)O)C(=O)N[C@@](C)(Cc1ccccc1)C(=O)N[C@H](C(=O)N[C@@H](CCC(N)=O)C(=O)NC(C)(C)C(=O)N[C@@H](CC(C)C)C(=O)N[C@@H](CO)C(=O)N[C@@H](CCC(=O)O)C(N)=O)C(C)C)C(=O)O)C(=O)O` [Peptide 94] (H-HSQGS[αMeF]TSDVSK[Aib]LDSK([PEG2-PEG2-γGlu-γGlu-Stearoyl])AAQD[αMeF]VQ[Aib]LSE-NH2; N-terminus assumed): the “% Relative Potency Ratio” value in assay [1] (Table 6) stood at 20.7. Moreover, the EC50 in assay [2] (setting [3]) was found to be 5.4 pM.

Turning to `CC[C@H](C)[C@H](NC(=O)C(C)(C)NC(=O)[C@H](CCC(N)=O)NC(=O)[C@@H](NC(=O)[C@H](Cc1ccccc1)NC(=O)[C@H](CC(=O)O)NC(=O)[C@H](CCCNC(=N)N)NC(=O)[C@H](C)NC(=O)[C@H](C)NC(=O)[C@H](CCCCNC(=O)COCCOCCNC(=O)COCCOCCNC(=O)CC[C@H](NC(=O)CCCCCCCCCCCCCCCCC(=O)O)C(=O)O)NC(=O)[C@H](CO)NC(=O)[C@H](CC(=O)O)NC(=O)[C@H](CC(C)C)NC(=O)[C@](C)(Cc1ccccc1)NC(=O)[C@H](CCCCN)NC(=O)[C@H](CO)NC(=O)[C@@H](NC(=O)[C@H](CC(=O)O)NC(=O)[C@H](CO)NC(=O)[C@@H](NC(=O)[C@](C)(Cc1ccccc1)NC(=O)[C@H](CO)NC(=O)CNC(=O)[C@H](Cc1c[nH]cn1)NC(=O)C(C)(C)NC(=O)[C@@H](N)Cc1c[nH]cn1)[C@@H](C)O)C(C)C)C(C)C)C(=O)N[C@@H](C)C(=O)N[C@@H](CC(N)=O)C(=O)N[C@H](C(N)=O)[C@@H](C)O` [Peptide 12] (H-H[Aib]HGS[αMeF]TSDVSK[αMeF]LDSK([AEEA-AEEA-γGlu-C18 diacid])AARDFVQ[Aib]IANT-NH2; N-terminus assumed), the EC50 in assay [1] (setting [3]) came to 14.5 pM; in assay [2] (setting [3]), 47.7 pM. Moreover, in assay [1] (Table 6), the “% Relative Potency Ratio” value is given as 6.5.

In the case of `CC[C@H](C)[C@H](NC(=O)C(C)(C)NC(=O)[C@H](CCC(N)=O)NC(=O)[C@@H](NC(=O)[C@](C)(Cc1ccccc1)NC(=O)[C@H](CC(=O)O)NC(=O)[C@H](CCCCNC(=O)COCCOCCNC(=O)CC[C@H](NC(=O)COCCOCCNC(=O)CC[C@H](NC(=O)CCCCCCCCCCCCCCCCCCC(=O)O)C(=O)O)C(=O)O)NC(=O)[C@H](C)NC(=O)[C@H](C)NC(=O)[C@H](CCCNC(=N)N)NC(=O)[C@H](CO)NC(=O)[C@H](CC(=O)O)NC(=O)[C@H](CC(C)C)NC(=O)[C@](C)(Cc1ccccc1)NC(=O)[C@H](CCCCN)NC(=O)[C@H](CO)NC(=O)[C@@H](NC(=O)[C@H](CC(=O)O)NC(=O)[C@H](CO)NC(=O)[C@@H](NC(=O)[C@](C)(Cc1ccccc1)NC(=O)[C@H](CO)NC(=O)CNC(=O)[C@H](Cc1c[nH]cn1)NC(=O)C(C)(C)NC(=O)[C@@H](N)Cc1c[nH]cn1)[C@@H](C)O)C(C)C)C(C)C)C(=O)N[C@@H](C)C(=O)N[C@@H](CC(N)=O)C(=O)N[C@H](C(N)=O)[C@@H](C)O` [Peptide 266] (H-H[Aib]HGS[αMeF]TSDVSK[αMeF]LDSRAAK([AEEA-γGlu-AEEA-γGlu-C20 diacid])D[αMeF]VQ[Aib]IANT-NH2), the EC50 came out at 66.5 pM in assay [1] (setting [4]) and 293 pM in assay [2] (setting [4]). Also, the “% Relative Potency Ratio” value in assay [1] (Table 7) stood at 8.7.

For the molecule `CC(C)C[C@H](NC(=O)[C@H](Cc1c[nH]c2ccccc12)NC(=O)[C@H](CCCNC(=N)N)NC(=O)[C@@H](NC(=O)[C@H](Cc1ccccc1)NC(=O)[C@H](CC(=O)O)NC(=O)[C@H](CCCNC(=N)N)NC(=O)[C@H](C)NC(=O)[C@H](CCCNC(=N)N)NC(=O)[C@H](CCCCNC(=O)COCCOCCNC(=O)COCCOCCNC(=O)CC[C@H](NC(=O)CCCCCCCCCCCCCCCCCCC(=O)O)C(=O)O)NC(=O)[C@@H](NC(=O)[C@H](CC(=O)O)NC(=O)[C@H](CC(C)C)NC(=O)[C@](C)(Cc1ccccc1)NC(=O)[C@H](CCCCN)NC(=O)[C@H](CO)NC(=O)[C@@H](NC(=O)[C@H](CC(=O)O)NC(=O)[C@H](CO)NC(=O)[C@@H](NC(=O)[C@H](Cc1ccccc1)NC(=O)[C@@H](NC(=O)CNC(=O)[C@H](CCC(N)=O)NC(=O)C(C)(C)NC(=O)[C@@H](N)Cc1c[nH]cn1)[C@@H](C)O)[C@@H](C)O)C(C)C)[C@@H](C)O)C(C)C)C(=O)N[C@@H](CC(C)C)C(=O)NC(C)(C)C(=O)N[C@@H](CCC(=O)O)C(=O)O` [Peptide 510] (H-H[Aib]QGTFTSDVSK[αMeF]LDTK([AEEA-AEEA-γGlu-C20 diacid])RARDFVRWLL[Aib]E-OH; N-terminus assumed), the EC50 in assay [1] (setting [3]) worked out at 176 pM; in assay [2] (setting [3]), 118 pM. In assay [1] (Table 6), the “% Relative Potency Ratio” value is reported as 1.3.

In the case of `CC(C)C[C@H](NC(=O)[C@H](Cc1c[nH]c2ccccc12)NC(=O)[C@H](CCCNC(=N)N)NC(=O)[C@@H](NC(=O)[C@H](Cc1ccccc1)NC(=O)[C@H](CC(=O)O)NC(=O)[C@H](CCC(N)=O)NC(=O)[C@H](C)NC(=O)[C@H](CCCNC(=N)N)NC(=O)[C@H](CCCCNC(=O)COCCOCCNC(=O)COCCOCCNC(=O)CC[C@H](NC(=O)CCCCCCCCCCCCCCCCCCC(=O)O)C(=O)O)NC(=O)[C@H](CCCCN)NC(=O)[C@H](CC(=O)O)NC(=O)[C@H](CC(C)C)NC(=O)[C@](C)(Cc1ccccc1)NC(=O)[C@H](CCCCN)NC(=O)[C@H](CO)NC(=O)[C@@H](NC(=O)[C@H](CC(=O)O)NC(=O)[C@H](CO)NC(=O)[C@@H](NC(=O)[C@H](Cc1ccccc1)NC(=O)[C@@H](NC(=O)CNC(=O)[C@H](CCC(N)=O)NC(=O)C(C)(C)NC(=O)[C@@H](N)Cc1c[nH]cn1)[C@@H](C)O)[C@@H](C)O)C(C)C)C(C)C)C(=O)N[C@@H](CCC(=O)O)C(=O)N[C@@H](C)C(=O)NC(C)(C)C(=O)NCC(N)=O` [Peptide 454] (H-H[Aib]QGTFTSDVSK[αMeF]LDKK([AEEA-AEEA-γGlu-C20 diacid])RAQDFVRWLEA[Aib]G-NH2), the figures for the EC50 in assay [1] (setting [3]) and in assay [2] (setting [3]) were 173 pM and 274 pM, respectively. Further, the “% Relative Potency Ratio” value in assay [1] (Table 6) turned out to be 3.1.

For `CC[C@H](C)[C@H](NC(=O)[C@H](Cc1c[nH]c2ccccc12)NC(=O)[C@H](CCC(=O)O)NC(=O)[C@@H](NC(=O)[C@](C)(Cc1ccccc1)NC(=O)[C@H](CC(=O)O)NC(=O)[C@H](CCC(N)=O)NC(=O)[C@H](C)NC(=O)[C@H](C)NC(=O)[C@H](CCCCNC(=O)COCCOCCNC(=O)COCCOCCNC(=O)CC[C@H](NC(=O)CCCCCCCCCCCCCCCCC(=O)O)C(=O)O)NC(=O)[C@H](CO)NC(=O)[C@H](CC(=O)O)NC(=O)[C@H](CC(C)C)NC(=O)[C@](C)(Cc1ccccc1)NC(=O)[C@H](CCCCN)NC(=O)[C@H](CO)NC(=O)[C@@H](NC(=O)[C@H](CC(=O)O)NC(=O)[C@H](CO)NC(=O)[C@@H](NC(=O)[C@](C)(Cc1ccccc1)NC(=O)[C@H](CO)NC(=O)CNC(=O)[C@H](CCC(N)=O)NC(=O)C(C)(C)NC(=O)[C@@H](N)Cc1c[nH]cn1)[C@@H](C)O)C(C)C)C(C)C)C(=O)N[C@@H](C)C(=O)N[C@@H](CC(N)=O)C(N)=O` [Peptide 27] (H-H[Aib]QGS[αMeF]TSDVSK[αMeF]LDSK([AEEA-AEEA-γGlu-C18 diacid])AAQD[αMeF]VEWIAN-NH2; N-terminus assumed), the EC50 in assay [1] (setting [3]) was determined as 18.2 pM; in assay [2] (setting [3]), 1440 pM. In assay [1] (Table 6), the “% Relative Potency Ratio” value came out at 156.4.
